Measurements as given in patent US9873693B2 (Sunesis Pharmaceuticals, Inc., priority 2006, dated 2018).
Read-outs that look alike come from different tables or passages of the source.

Assays:
phosphorylated PDK1 = phosphorylated PDK1 (Homo sapiens (Human), UniProt O15530); assay: PDK1 kinase assay (coupled PDK1/AKT/FAM-crosstide, IMAP); type: biochemical; details: 0.5 nM phosphorylated PDK1, 24 μM ATP; read-out: Inhibition of phospo-PDK1 in vitro IC50
dephosphorylated PDK1 = dephosphorylated PDK1 (Homo sapiens (Human), UniProt O15530); assay: as above; type: biochemical; details: 25 nM un-phosphorylated PDK1, 24 μM ATP; read-out: Inhibition of dephospo-PDK1 in vitro IC50
Method: A PDK1 kinase assay was performed as follows. PDK1 (amino acids 51-360) and AKT2 (amino acids 140-467 fused to PIFtide, amino acids […]) were expressed as N-terminally tagged GST fusion proteins in insect cells and purified to greater than 90% homogeneity. PDK1 protein was divided into two fractions, one of which was subsequently dephosphorylated. To generate dephosphorylated PDK1, the PDK1 was reacted with GST-tagged lambda-phosphatase in vitro. GST was subsequently cleaved proteolytically for both phosphorylated and dephosphorylated PDK1. Protein preparations were run on glutathione Sepharose columns to remove GST and GST-tagged lambda-phosphatase, if present. Phosphorylated PDK1 and dephosphorylated PDK1 were verified by mass-spectrometry. Enzyme activity was determined in a coupled PDK1/AKT/FAM-crosstide assay using either phosphorylated or unphosphorylated PDK1 and phosphorylation of FAM-crosstide was determined by standard IMAP protocol (Molecular Devices). For inhibition studies, compounds were titrated 3-fold in DMSO and diluted 40-fold into assay buffer (10 mM Tris HCl pH7.2; 10 mM MgCl2; 0.01% Triton X-100; 1 mM DTT) containing PDK1, AKT2, and FAM-crosstide. (final concentrations: 25 nM un-phosphorylated PDK1 or 0.5 nM phosphorylated PDK1, 30 nM unphosphorylated AKT2, and 100 nM crosstide substrate). The kinase reaction was initiated by adding ATP to a final concentration of 24 μM for both forms of PDK1 and incubated at 25° C. for 30 min. To detect assay product, the kinase reaction was combined with Progressive Binding Solution (1:600 Progressive Binding Reagent, 50% Buffer A, 50% Buffer B, Molecular Devices) in a 1:3 ratio. The mixture was incubated for 2 hours at 25° C. and the plate was scanned on an Analyst AD with excitation at 485 nm and emission at 530 nm. The fluorescence polarization value “P” is defined by the equation below. The value “mP” is generated by multiplying the P value for each reaction well by a factor of 1000. The value “ΔmP” for each well is the mP value for that well minus the mP value for the average negative control. P=(Fpar−Fperp)/(Fpar+Fperp) Eq.:
Where “par” is fluorescence intensity parallel to the excitation plane; and “perp” is fluorescence intensity perpendicular to the excitation plane. ΔmP values were plotted as a function of compound concentration and the data were analyzed with a 4-parameter fit using GraphPad Prism software.

phospho-akt (Thr308) = phospho-akt (Thr308) MSD ELISA in PC-3 cells; type: cell-based; details: Homo sapiens; for EC50: PC-3, 2 h; for inhibition at 1 µM / inhibition at 10 µM: read-out: Percent Inhibition of phospho-Akt (308) By MSD ELISA
Outline: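 Read-out is MSD electrochemiluminescence after lysate capture overnight at 4 degrees and 1 hr RT detection-antibody step. Before lysis, overnight-plated PC-3 cells received three-fold serial dilutions of inhibitor in serum-free medium, with DMSO-only high controls.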

[1] = PC-3 cells, 2 hours, no serum, read-out: Inhibition of P308 Akt in cells using MSD EC50
[2] = PC-3 cells, 2 hours, no serum, read-out: Reduction of Cellular Levels of Akt p308 By MSD ELISA (EC50 μM)
[3] = read-out: Reduction of Cellular Levels of Akt p308 By MSD ELISA (EC50 μM)

phosphorylated PDK1, sequence (O15530 51-360): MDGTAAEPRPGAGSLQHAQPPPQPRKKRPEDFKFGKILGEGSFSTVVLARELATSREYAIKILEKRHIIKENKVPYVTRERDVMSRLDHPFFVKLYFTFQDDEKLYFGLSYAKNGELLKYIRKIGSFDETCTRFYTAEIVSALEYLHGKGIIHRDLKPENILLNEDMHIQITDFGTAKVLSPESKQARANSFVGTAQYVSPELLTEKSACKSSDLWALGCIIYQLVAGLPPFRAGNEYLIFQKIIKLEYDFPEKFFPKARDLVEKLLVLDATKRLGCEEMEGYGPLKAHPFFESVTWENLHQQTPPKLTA
dephosphorylated PDK1, sequence (O15530 51-360): as above

## O=C(N[C@H]1CC[C@@H](c2c[nH]c3ncccc32)CC1)c1cccn(Cc2ccc(F)c(F)c2)c1=O [Cpd 1]
Phosphorylated PDK1
  IC50: < 500 nM
Dephosphorylated PDK1
  IC50: < 500 nM
phospho-akt (Thr308); [1]
  EC50: > 5 µM
phospho-akt (Thr308); [2]
  EC50: > 5 µM

## O=C(NCc1cccc(-c2ccc3ncnn3c2)c1)c1cccn(Cc2ccc(F)c(F)c2)c1=O [Cpd 3]
Phosphorylated PDK1
  IC50: < 500 nM
Dephosphorylated PDK1
  IC50: < 500 nM
phospho-akt (Thr308); [2]
  EC50: 1 to 5 µM
phospho-akt (Thr308); PC-3 cells
  inhibition at 1 µM: < 25%
  inhibition at 10 µM: > 75%

## O=C(NCc1ccc(-c2n[nH]c3ncccc23)s1)c1cccn(Cc2ccc(F)c(F)c2)c1=O [Cpd 7]
Phosphorylated PDK1
  IC50: < 500 nM
Dephosphorylated PDK1
  IC50: < 500 nM
phospho-akt (Thr308); [1]
  EC50: < 1 µM
phospho-akt (Thr308); [2]
  EC50: < 1 µM
phospho-akt (Thr308); PC-3 cells
  inhibition at 1 µM: 25 to 75%
  inhibition at 10 µM: > 75%

## O=C(O)C[C@@H](NC(=O)c1cccn(Cc2ccc(F)c(F)c2)c1=O)c1ccc(-c2c[nH]c3ncccc23)s1 [Cpd 15]
Phosphorylated PDK1
  IC50: < 500 nM
Dephosphorylated PDK1
  IC50: < 500 nM
phospho-akt (Thr308); [3]
  EC50: > 5 µM

## O=C(NCc1ccc(-c2c[nH]c3ncc(Cl)cc23)s1)c1cccn(Cc2ccc(F)c(F)c2)c1=O [Cpd 23]
Phosphorylated PDK1
  IC50: < 500 nM
Dephosphorylated PDK1
  IC50: < 500 nM
phospho-akt (Thr308); [1]
  EC50: > 5 µM
phospho-akt (Thr308); [2]
  EC50: > 5 µM

## NC(=O)C(NC(=O)c1cccn(Cc2ccc(F)c(F)c2)c1=O)c1ccc(-c2c[nH]c3ncccc23)s1 (centres unmarked) [Cpd 24]
Phosphorylated PDK1
  IC50: < 500 nM
Dephosphorylated PDK1
  IC50: < 500 nM
phospho-akt (Thr308); read-out: Inhibition of P308 Akt in cells using MSD EC50
  EC50: 1 to 5 µM
phospho-akt (Thr308); [3]
  EC50: 1 to 5 µM

## O=C(NCc1ccc(-c2ccc3[nH]ncc3c2)s1)c1cccn(Cc2ccc(F)c(F)c2)c1=O [Cpd 52]
Phosphorylated PDK1
  IC50: < 500 nM
Dephosphorylated PDK1
  IC50: < 500 nM
phospho-akt (Thr308); [1]
  EC50: 1 to 5 µM

## O=C(NCc1ccc(-c2cccc3[nH]ncc23)s1)c1cccn(Cc2ccc(F)c(F)c2)c1=O [Cpd 58]
Phosphorylated PDK1
  IC50: < 500 nM
Dephosphorylated PDK1
  IC50: < 500 nM
phospho-akt (Thr308); [1]
  EC50: 1 to 5 µM

## O=C(NCCOc1ccc2[nH]c(=O)[nH]c2c1)c1cccn(Cc2ccc(F)c(F)c2)c1=O [Cpd 113]
Phosphorylated PDK1
  IC50: < 500 nM
Dephosphorylated PDK1
  IC50: < 500 nM
phospho-akt (Thr308); [1]
  EC50: > 5 µM

## O=C(NCc1csc(-c2c[nH]c3ncccc23)n1)c1cccn(Cc2ccc(F)c(F)c2)c1=O [Cpd 121]
Phosphorylated PDK1
  IC50: < 500 nM
Dephosphorylated PDK1
  IC50: < 500 nM
phospho-akt (Thr308); [1]
  EC50: < 1 µM

## CNC(=O)[C@H](COc1ccc2[nH]c(=O)[nH]c2c1)NC(=O)c1cccn(Cc2cc(F)c(F)c(F)c2)c1=O [Cpd 157]
Phosphorylated PDK1
  IC50: < 500 nM
Dephosphorylated PDK1
  IC50: < 500 nM

## O=C(NCCOc1cc(F)c2[nH]c(=O)[nH]c2c1)c1cccn(Cc2ccc(F)c(F)c2)c1=O [Cpd 158]
Phosphorylated PDK1
  IC50: 500 to 10000 nM
Dephosphorylated PDK1
  IC50: < 500 nM

## O=C(Nc1cccc(-c2ccc3[nH]c(=O)[nH]c3c2)c1)c1cccn(Cc2ccc(F)c(F)c2)c1=O [Cpd 162]
Phosphorylated PDK1
  IC50: 500 to 10000 nM
Dephosphorylated PDK1
  IC50: < 500 nM

## O=C1Cc2ccc(/C=C/CNC(=O)c3cc(I)cn(Cc4cc(F)c(F)c(F)c4)c3=O)cc2N1 [Cpd 178]
Phosphorylated PDK1
  IC50: < 500 nM
Dephosphorylated PDK1
  IC50: < 500 nM

## O=C(N[C@H](COc1ccc2[nH]c(=O)[nH]c2c1)C1CCOC1)c1cccn(Cc2cc(F)c(F)c(F)c2)c1=O (some centres unmarked) [Cpd 185]
Phosphorylated PDK1
  IC50: < 500 nM
Dephosphorylated PDK1
  IC50: < 500 nM

## O=C(NCc1cccc(-c2cc(=O)[nH][nH]2)c1)c1cccn(Cc2ccc(F)c(F)c2)c1=O [Cpd 217]
Phosphorylated PDK1
  IC50: > 10000 nM
Dephosphorylated PDK1
  IC50: 500 to 10000 nM

## O=C(NCc1cccc(-c2ccc3nsnc3c2)c1)c1cccn(Cc2ccc(F)c(F)c2)c1=O [Cpd 218]
Phosphorylated PDK1
  IC50: > 10000 nM
Dephosphorylated PDK1
  IC50: 500 to 10000 nM

## O=C(NCc1cccc(-c2ccc3nonc3c2)c1)c1cccn(Cc2ccc(F)c(F)c2)c1=O [Cpd 219]
Phosphorylated PDK1
  IC50: > 10000 nM
Dephosphorylated PDK1
  IC50: 500 to 10000 nM

## O=C(NS(=O)(=O)c1ccc(-c2c[nH]c3ncccc23)s1)c1cccn(Cc2ccc(F)c(F)c2)c1=O [Cpd 231]
Phosphorylated PDK1
  IC50: 500 to 10000 nM
Dephosphorylated PDK1
  IC50: 500 to 10000 nM

## Nc1cnc(Nc2cccc(NC(=O)N3CCCC3)c2)nc1NCCCCCCNC(=O)c1cccn(Cc2cccc(Cl)c2)c1=O [Cpd 249]
Phosphorylated PDK1
  IC50: > 10000 nM
Dephosphorylated PDK1
  IC50: < 500 nM

## COc1ccnc(NCCCCCNC(=O)c2cc(Cl)cn(Cc3ccc(Cl)cc3)c2=O)n1 [Cpd 252]
Phosphorylated PDK1
  IC50: 500 to 10000 nM
Dephosphorylated PDK1
  IC50: < 500 nM

## COc1ccnc(NCCCCCNC(=O)c2cc(Br)cn(Cc3cccc(F)c3)c2=O)n1 [Cpd 253]
Phosphorylated PDK1
  IC50: 500 to 10000 nM
Dephosphorylated PDK1
  IC50: < 500 nM

## COc1ccnc(NCCCCCNC(=O)c2cccn(C(C)c3ccc(Cl)cc3)c2=O)n1 (centres unmarked) [Cpd 254]
Phosphorylated PDK1
  IC50: 500 to 10000 nM
Dephosphorylated PDK1
  IC50: < 500 nM

## COc1ccnc(NCCC#CCCNC(=O)c2cccn(Cc3ccc(Cl)c(Cl)c3)c2=O)n1 [Cpd 255]
Phosphorylated PDK1
  IC50: < 500 nM
Dephosphorylated PDK1
  IC50: < 500 nM

## COc1ccnc(NCCC#CCCNC(=O)c2cc(Cl)cn(Cc3ccc(Cl)cc3)c2=O)n1 [Cpd 256]
Phosphorylated PDK1
  IC50: 500 to 10000 nM
Dephosphorylated PDK1
  IC50: < 500 nM

## CCc1ccnc(NCCC#CCCNC(=O)c2cc(Cl)cn(Cc3cccc(Cl)c3)c2=O)n1 [Cpd 257]
Phosphorylated PDK1
  IC50: < 500 nM
Dephosphorylated PDK1
  IC50: < 500 nM

## COc1ccnc(NCCC#CCCNC(=O)c2cc(F)cn(Cc3cccc(F)c3)c2=O)n1 [Cpd 258]
Phosphorylated PDK1
  IC50: < 500 nM
Dephosphorylated PDK1
  IC50: < 500 nM

## COc1ccnc(NCCC#CCCNC(=O)c2cccn([C@H](C)c3ccc(Cl)cc3)c2=O)n1 [Cpd 259]
Phosphorylated PDK1
  IC50: < 500 nM
Dephosphorylated PDK1
  IC50: < 500 nM

## COc1ccnc(NCCCCCCNC(=O)c2cccn(Cc3cccc(F)c3)c2=O)n1 [Cpd 261]
Phosphorylated PDK1
  IC50: 500 to 10000 nM
Dephosphorylated PDK1
  IC50: < 500 nM

## COc1ccnc(NCCC#CCNC(=O)c2cccn(Cc3cccc(Cl)c3)c2=O)n1 [Cpd 262]
Phosphorylated PDK1
  IC50: < 500 nM
Dephosphorylated PDK1
  IC50: < 500 nM

## COc1ccnc(NCCC#CCCNC(=O)c2cccn(Cc3ccc(F)c(F)c3)c2=O)n1 [Cpd 263]
Phosphorylated PDK1
  IC50: < 500 nM
Dephosphorylated PDK1
  IC50: < 500 nM

## COc1ccnc(NCCCCCNC(=O)c2cccn(Cc3ccc(F)c(Cl)c3)c2=O)n1 [Cpd 266]
Phosphorylated PDK1
  IC50: 500 to 10000 nM
Dephosphorylated PDK1
  IC50: < 500 nM

## O=C(NCCCCc1c[nH]c2ncccc12)c1cccn(Cc2cc(F)c(F)c(F)c2)c1=O [Cpd 271]
Phosphorylated PDK1
  IC50: < 500 nM
Dephosphorylated PDK1
  IC50: < 500 nM

## O=C(NCc1nc(-c2c[nH]c3ncccc23)cs1)c1cccn(Cc2cccc(Cl)c2)c1=O [Cpd 272]
Phosphorylated PDK1
  IC50: < 500 nM
Dephosphorylated PDK1
  IC50: < 500 nM

## O=C(NCc1nc(-c2c[nH]c3ncccc23)cs1)c1cc(Cl)cn(Cc2ccc(Cl)cc2)c1=O [Cpd 273]
Phosphorylated PDK1
  IC50: < 500 nM
Dephosphorylated PDK1
  IC50: < 500 nM

## Cc1sc(CNC(=O)c2cccn(Cc3ccc(F)c(F)c3)c2=O)nc1-c1c[nH]c2ncccc12 [Cpd 275]
Phosphorylated PDK1
  IC50: 500 to 10000 nM
Dephosphorylated PDK1
  IC50: < 500 nM

## O=C(NC1(c2nnc(-c3c[nH]c4ncccc34)o2)CC1)c1cccn(Cc2ccc(F)c(F)c2)c1=O [Cpd 281]
Phosphorylated PDK1
  IC50: < 500 nM
Dephosphorylated PDK1
  IC50: < 500 nM
